Laboratory results from paper PMC7346113, “Screening of Natural Stilbene Oligomers from Vitis vinifera for Anticancer Activity on Human Hepatocellular Carcinoma Cells” (Antioxidants, 2020).

Tests used:
Assay type in all cases: cell-based, human
Settings in all cases: mean ± standard error
HH4 = experiment: Cell viability, crystal violet assay, HH4 non-transformed hepatocytes
Excerpt: (§1) The human hepatoma cell line HepG2 was obtained from the American Tissue Culture Collection (ATCC, Manassas, VA, USA). The human hepatoma cell line Hep3B was obtained from the European Collection of Authenticated Cell Cultures (ECACC, Porton Down, Salisbury, Wiltshire, UK). HH4 non-transformed human hepatocyte cell line (kindly provided by Dr. I. Fabregat, Molecular Oncology, Bellvitge Biomedical Research Institute, Spain) was established as described.
(§2) HepG2 and Hep3B cell lines were maintained in Eagle’s Minimum Essential Medium and HH4 cell line was grown in Ham´s F12 Nutrient Mixture (Sigma-Aldrich, St Louis, MO, USA). Both culture media were supplemented with 10% heat inactivated fetal bovine serum, 2 mM L-glutamine and antibiotics (0.1 mg/mL streptomycin and 100 U/mL penicillin) (Sigma-Aldrich, St Louis, MO, USA). Cell cultures were grown in an incubator at 37 °C with 5% CO2 atmosphere. After reaching approximately 80% of confluence, cells were detached in a solution of 0.1% trypsin and 0.04% EDTA and plated as required for further experiments.
(§3) Cell lines were seeded into 96-well plates at 5 × 10^3 (HepG2) and 3 × 10^3 (Hep3B and HH4) cells/well 24 h before treatment. Increasing concentrations of the monomer trans-resveratrol, the dimers ampelopsin A and trans-ε-viniferin and the tetramers isohopeaphenol, hopeaphenol, R2-viniferin and R-viniferin were then added and cells were incubated for 24, 48, and 72 h. Stilbenes were dissolved in dimethyl sulfoxide (DMSO), Sigma-Aldrich, St Louis, MO, USA) at a final concentration of 0.01%. The same amount of DMSO was added to control cells. After treatment, the cell viability was determined using the crystal violet assay. The absorbance was recorded at 590 nm in a Synergy HT microplate reader (BioTek, Winooski, VT, USA). Cell viability was calculated as the percentage of viable cells treated with stilbene versus untreated control cells using the following equation: Cell viability (%) = [OD (Treatment) − OD (Blank)]/[OD (Control) − OD (Blank)] × 100. The cytotoxic effect of stilbenes was determined by calculating IC50 values using non-linear regression analysis (GraphPad Prism 6, San Diego, CA, USA).
(§4) The statistical package SPSS 19.0 (SPSS Inc. Chicago, IL, USA) was used for data analysis. The results were expressed as mean ± standard error (SE) from at least three experiments. Statistical significance for the differences of the means was estimated by parametric Student’s t-test. Differences between means were considered statistically significant for p < 0.05. IC50 values were derived from fitting the data to a sigmoidal dose-response curve with a three-parameter logistic model using Graph Pad Prism 6.

HepG2 = experiment: Cell viability, crystal violet assay, HepG2
Excerpt: as §1, §2, §3, §4

Hep3B = experiment: Cell viability, crystal violet assay, Hep3B
Excerpt: as §1, §2, §3, §4

[1] = Homo sapiens, HepG2, 24 h, 24 h
[2] = Homo sapiens, HepG2, 48 h, 48 h
[3] = Homo sapiens, HepG2, 72 h, 72 h

Oc1ccc([C@H]2c3c(O)cc(O)cc3[C@H]3c4c(cc(O)cc4[C@@H]2[C@H]2c4cc(O)cc5c4[C@H](c4cc(O)cc(O)c4[C@@H]2c2ccc(O)cc2)[C@@H](c2ccc(O)cc2)O5)O[C@@H]3c2ccc(O)cc2)cc1 [Hopeaphenol]
IC50 (HH4; Homo sapiens, Hepatocyte, 24 h): > 200 µM
IC50 (HH4; Homo sapiens, Hepatocyte, 48 h): 92 ± 38 µM
IC50 (HH4; Homo sapiens, Hepatocyte, 72 h): 37.6 ± 13 µM
IC50 (HepG2; 72 h): 24.4 ± 2 µM
IC50 (HepG2; [1]): > 200 µM
IC50 (HepG2; [2]): 27 ± 3.3 µM
IC50 (HepG2; [3]): 24 µM
IC50 (Hep3B; 72 h): 13.1 ± 4.1 µM
IC50 (Hep3B; Homo sapiens, Hep3B, 24 h): > 200 µM
IC50 (Hep3B; Homo sapiens, Hep3B, 48 h): 16.8 ± 2.3 µM
IC50 (Hep3B; Homo sapiens, Hep3B, 72 h): 13 µM

Oc1ccc(/C=C/c2cc(O)cc3c2[C@@H](c2cc(O)cc(O)c2)[C@H](c2ccc(O)cc2)O3)cc1 [trans-ε-Viniferin]
IC50 (HH4; 72 h): 178 ± 20.5 µM
IC50 (HH4; Homo sapiens, Hepatocyte, 24 h): > 200 µM
IC50 (HH4; Homo sapiens, Hepatocyte, 48 h): 193 ± 21.1 µM
IC50 (HH4; Homo sapiens, Hepatocyte, 72 h): 178 µM
IC50 (HepG2; [1]): 140 ± 39.7 µM
IC50 (HepG2; [2]): 104 ± 19.2 µM
IC50 (HepG2; [3]): 94.8 ± 28.3 µM
IC50 (Hep3B; 72 h): 63.1 ± 10.8 µM
IC50 (Hep3B; Homo sapiens, Hep3B, 24 h): 108 ± 31.8 µM
IC50 (Hep3B; Homo sapiens, Hep3B, 48 h): 73.9 ± 17.3 µM
IC50 (Hep3B; Homo sapiens, Hep3B, 72 h): 63 µM

Oc1ccc([C@H]2c3c(O)cc(O)cc3[C@H]3c4c(cc(O)cc4[C@@H]2O)O[C@@H]3c2ccc(O)cc2)cc1 [Ampelopsin A]
IC50 (HH4; Homo sapiens, Hepatocyte, 24 h): > 200 µM
IC50 (HH4; Homo sapiens, Hepatocyte, 48 h): 178 ± 67.8 µM
IC50 (HH4; Homo sapiens, Hepatocyte, 72 h): 134 ± 34.7 µM
IC50 (HepG2; 72 h): 75.5 ± 21.5 µM
IC50 (HepG2; [1]): > 200 µM
IC50 (HepG2; [2]): 98.6 ± 24.9 µM
IC50 (HepG2; [3]): 76 µM
IC50 (Hep3B; Homo sapiens, Hep3B, 24 h): > 200 µM
IC50 (Hep3B; Homo sapiens, Hep3B, 48 h): 148 ± 14.4 µM
IC50 (Hep3B; Homo sapiens, Hep3B, 72 h): 109 ± 7.3 µM

Oc1ccc([C@H]2Oc3cc(O)cc(/C=C/c4ccc5c(c4)[C@@H](c4cc(O)cc6c4[C@H](c4cc(O)cc(O)c4)[C@@H](c4ccc(O)cc4)O6)[C@H](c4ccc(O)cc4)O5)c3[C@@H]2c2cc(O)cc(O)c2)cc1 [R-Viniferin]
IC50 (HepG2; [1]): > 200 µM
IC50 (HepG2; [2]): > 200 µM
IC50 (HepG2; [3]): 192 ± 27.1 µM
IC50 (Hep3B; Homo sapiens, Hep3B, 24 h): > 200 µM
IC50 (Hep3B; Homo sapiens, Hep3B, 48 h): 137 ± 19.8 µM
IC50 (Hep3B; Homo sapiens, Hep3B, 72 h): 135 ± 35.7 µM

Oc1ccc(/C=C/c2cc(O)cc(O)c2)cc1 [trans-Resveratrol, reference compound]
IC50 (HH4; Homo sapiens, Hepatocyte, 24 h): > 200 µM
IC50 (HH4; Homo sapiens, Hepatocyte, 48 h): 135 ± 9 µM
IC50 (HH4; Homo sapiens, Hepatocyte, 72 h): 93 ± 16.1 µM
IC50 (HepG2; 72 h): 30.3 ± 4.4 µM
IC50 (HepG2; [1]): > 200 µM
IC50 (HepG2; [2]): 40.3 ± 9.3 µM
IC50 (HepG2; [3]): 30 µM
IC50 (Hep3B; Homo sapiens, Hep3B, 24 h): > 200 µM
IC50 (Hep3B; Homo sapiens, Hep3B, 48 h): 42 ± 11.6 µM
IC50 (Hep3B; Homo sapiens, Hep3B, 72 h): 21 ± 16.8 µM

Oc1ccc([C@@H]2c3c(O)cc(O)cc3[C@H]3c4c(cc(O)cc4[C@@H]2[C@H]2c4cc(O)cc5c4[C@H](c4cc(O)cc(O)c4[C@H]2c2ccc(O)cc2)[C@@H](c2ccc(O)cc2)O5)O[C@@H]3c2ccc(O)cc2)cc1 [Isohopeaphenol]
IC50 (HH4; Homo sapiens, Hepatocyte, 24 h): > 200 µM
IC50 (HH4; Homo sapiens, Hepatocyte, 48 h): 96 ± 5.5 µM
IC50 (HH4; Homo sapiens, Hepatocyte, 72 h): 63.7 ± 3.7 µM
IC50 (HepG2; 72 h): 54.1 ± 34 µM
IC50 (HepG2; [1]): 113 ± 33 µM
IC50 (HepG2; [2]): 68.8 ± 31 µM
IC50 (HepG2; [3]): 54 µM
IC50 (Hep3B; Homo sapiens, Hep3B, 24 h): 86.6 ± 11.7 µM
IC50 (Hep3B; Homo sapiens, Hep3B, 48 h): 37 ± 4.5 µM
IC50 (Hep3B; Homo sapiens, Hep3B, 72 h): 26 ± 3 µM
